According to the supplement of paper PMC10307832:

Tests used:
Test in all cases: relative viability (nuclei count vs DMSO), 5 days (fraction); higher = more cells survive
Avagacestat + Vorinostat = compound: NC(=O)[C@@H](CCC(F)(F)F)N(Cc1ccc(-c2ncon2)cc1F)S(=O)(=O)c1ccc(Cl)cc1 [Avagacestat] + O=C(CCCCCCC(=O)Nc1ccccc1)NO [Vorinostat] (partner 1 µM)
In short: (§1)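 A single step with final 0.05% Triton X-100, 1% formaldehyde and 1 ug/ml Hoechst fixed the cells and stained nuclei 5 days after treatment. Lung cancer cell lines in 1536-well plates had been treated by pin tool the day after seeding with one drug alone or a fixed anchor-drug dose plus five library-drug doses (not always all listed) in √10 steps, and nuclei were counted on 4× images. Relative viability is the ratio of nuclei in treated wells to nuclei in vehicle wells, taken as the median of duplicate plates.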

Avagacestat + Crizotinib = compound: NC(=O)[C@@H](CCC(F)(F)F)N(Cc1ccc(-c2ncon2)cc1F)S(=O)(=O)c1ccc(Cl)cc1 [Avagacestat] + C[C@@H](Oc1cc(-c2cnn(C3CCNCC3)c2)cnc1N)c1c(Cl)ccc(F)c1Cl [Crizotinib] (partner 1 µM)
In short: as §1

Avagacestat + Tozasertib = compound: NC(=O)[C@@H](CCC(F)(F)F)N(Cc1ccc(-c2ncon2)cc1F)S(=O)(=O)c1ccc(Cl)cc1 [Avagacestat] + Cc1cc(Nc2cc(N3CCN(C)CC3)nc(Sc3ccc(NC(=O)C4CC4)cc3)n2)n[nH]1 [Tozasertib] (partner 0.1 µM)
In short: as §1

Avagacestat + Navitoclax = compound: NC(=O)[C@@H](CCC(F)(F)F)N(Cc1ccc(-c2ncon2)cc1F)S(=O)(=O)c1ccc(Cl)cc1 [Avagacestat] + CC1(C)CCC(c2ccc(Cl)cc2)=C(CN2CCN(c3ccc(C(=O)NS(=O)(=O)c4ccc(N[C@H](CCN5CCOCC5)CSc5ccccc5)c(S(=O)(=O)C(F)(F)F)c4)cc3)CC2)C1 [Navitoclax] (partner 0.5 µM)
In short: as §1

Cell Line	relative viability (Avagacestat + Vorinostat; first compound 0.08 µM)	relative viability (Avagacestat + Vorinostat; first compound 0.253 µM)	relative viability (Avagacestat + Vorinostat; first compound 0.8 µM)	relative viability (Avagacestat + Vorinostat; first compound 2.53 µM)	relative viability (Avagacestat + Vorinostat; first compound 8 µM)	relative viability (Avagacestat + Crizotinib; first compound 0.08 µM)	relative viability (Avagacestat + Crizotinib; first compound 0.253 µM)	relative viability (Avagacestat + Crizotinib; first compound 0.8 µM)	relative viability (Avagacestat + Crizotinib; first compound 2.53 µM)	relative viability (Avagacestat + Crizotinib; first compound 8 µM)	relative viability (Avagacestat + Tozasertib; first compound 0.08 µM)	relative viability (Avagacestat + Tozasertib; first compound 0.253 µM)	relative viability (Avagacestat + Tozasertib; first compound 0.8 µM)	relative viability (Avagacestat + Tozasertib; first compound 2.53 µM)	relative viability (Avagacestat + Tozasertib; first compound 8 µM)	relative viability (Avagacestat + Navitoclax; first compound 0.08 µM)	relative viability (Avagacestat + Navitoclax; first compound 0.253 µM)	relative viability (Avagacestat + Navitoclax; first compound 0.8 µM)	relative viability (Avagacestat + Navitoclax; first compound 2.53 µM)	relative viability (Avagacestat + Navitoclax; first compound 8 µM)
NCI-H1915	0.56	0.633	0.522	0.477	0.479	0.924	1.15	0.964	0.912	0.889	0.51	0.48	0.464	0.393	0.398	0.84	0.812	0.798	0.807	0.828
NCI-H1437	1.03	1.12	1.11	0.893	0.728	1.14	1.1	1.12	1.05	0.824	0.416	0.457	0.41	0.377	0.307	1.39	1.22	1.1	1.04	0.979
HCC-366	0.472	0.426	0.437	0.31	0.385	0.608	0.645	0.517	0.525	0.645	0.0969	0.172	0.0909	0.0683	0.0694	1.23	1.48	1	1.09	1.01
NCI-H2405	1.04	1.1	1.12	0.943	0.933	0.881	0.825	0.81	0.849	0.853	0.718	0.751	0.747	0.714	0.661	0.864	0.937	0.779	0.638	0.797
LOU-NH91	1	0.878	1.03	0.798	0.885	0.739	0.725	0.732	0.73	0.761	0.621	0.63	0.648	0.609	0.624	0.69	0.723	0.684	0.531	0.646
EMC-BAC-2	0.662	0.581	0.803	0.535	0.51	0.797	0.844	0.766	0.704	0.719	0.278	0.299	0.31	0.255	0.322	1.46	1.54	1.38	1.1	1.17
NCI-H1993	0.797	0.771	0.74	0.7	0.631	0.925	0.777	1.03	0.907	0.879	0.604	0.594	0.529	0.541	0.539	1.08	0.995	1.09	0.905	1.04
BEN	0.589	0.653	0.579	0.526	0.588	0.835	1.12	0.835	0.607	0.809	0.512	0.504	0.526	0.449	0.49	0.0581	0.0757	0.141	0.061	0.0756
NCI-H1734	0.876	0.901	0.829	0.761	0.824	0.969	0.755	0.705	0.733	0.575	0.235	0.301	0.264	0.236	0.24	1.11	0.96	0.875	0.777	0.724
NCI-H2347	0.599	0.646	0.78	0.499	0.522	0.693	0.74	0.692	0.511	0.66	0.452	0.52	0.526	0.519	0.503	0.907	0.866	0.923	0.663	0.797
NCI-H647	0.743	0.64	0.579	0.597	0.567	1.31	1.41	1.19	1.03	1.07	–	0.319	0.199	0.263	0.0556	1.27	1.5	1.31	1.02	0.952
CAL-12T	0.918	1.1	0.796	0.729	0.798	0.607	0.52	0.717	0.627	0.679	0.368	0.358	0.385	0.24	0.278	1.52	1.44	1.3	1.32	1.22
